Experimental data published in patent publication US7253191B2, “2-thio-substituted imidazole derivatives and the use thereof in the pharmaceutical industry” (Merckle GmbH, priority 2001, dated 2007).
Each block holds one compound with its values, some of them ahead of it.

What was measured:
[1] = system: IL-1β; assay: In vitro test of cytokine release: LPS-stimulated human whole blood / PBMCs, IL-1β by ELISA; format: cell-based; details: for IC50: LPS (E.coli 026:B6) stimulation 4 hours, table does not say whole blood or PBMCs; for IL-1β, value given in %: concentration not given
Method: (§1) They may be administered in one individual dose or in a plurality of doses. The activity spectrum of the compounds as inhibitors of cytokine release was examined using the test systems below, as described by C. Donat and S. Laufer in Arch. Pharm. Pharm. […] 1, 1-40, 2000.
(§2) The reaction is stopped by placing the samples on ice, adding DPBS buffer and then centrifuging at 1000*g for 15 min. The amount of IL-1β and TNFα in the plasma supernatant is then determined by ELISA.
(§3) The cells are washed twice with DPBS buffer, resuspended in macrophage SFM medium and adjusted to a cell count of 1*10^6 cells/ml.
(§4) The reaction is stopped by placing the samples on ice, adding DPBS buffer and then centrifuging at 15 880*g for 12 min. The amount of IL-1β and TNFα in the plasma supernatant is then determined by ELISA.

[2] = system: TNF-α; assay: In vitro test of cytokine release: LPS-stimulated human whole blood / PBMCs, TNFα by ELISA; format: cell-based; details: for IC50: LPS (E.coli 026:B6) stimulation 4 hours, table does not say whole blood or PBMCs; for TNF-α, value given in %: concentration not given
Method: as §1, §2, §3, §4

Compound: CCCn1c(Sc2ccc(S(C)(=O)=O)cc2)nc(-c2ccc(F)cc2)c1-c1ccncc1 [Example 56, 4-(4-Fluorophenyl)-2-[(4-methylsulfonyl)phenyl]thio-1-n-propyl-5-(4-pyridyl)imidazole]
IC50 ([1]; Table 1): 1500 nM
IC50 ([2]; Table 1): 19000 nM

Compound: Cn1c(S)nc(-c2ccc(F)cc2)c1-c1ccncc1 [Example 1, 4-(4-fluorophenyl)-1-methyl-5-(4-pyridyl)-2-thioimidazole]
IC50 ([1]; Table 1): 3600 nM
IC50 ([2]; Table 1): 19000 nM

Compound: CS(=O)(=O)c1ccc(CSc2nc(-c3ccc(F)cc3)c(-c3ccncc3)n2C2CCCCC2)cc1 [Example 39, 1-Cyclohexyl-4-(4-fluorophenyl)-2-(4-methylsulfonyl)benzylthio-5-(4-pyridyl)imidazole]
IC50 ([1]; Table 1): 1800 nM
IC50 ([2]; Table 1): 13000 nM

Compound: Fc1ccc(-c2[nH]c(=S)n(CCN3CCOCC3)c2-c2ccncc2)cc1 [Example 16, 4-(4-Fluorophenyl)-1-N-morpholinoethyl-5-(4-pyridyl)-2-thioimidazole]
IL-1β, value given in % ([1]; Table 1): 44%
TNF-α, value given in % ([2]; Table 1): 34%

Compound: CSc1nc(-c2ccc(F)cc2)c(-c2ccnc(NCc3ccccc3)c2)n1C [Example 70, 4-(4-Fluorophenyl)-1-methyl-5-(2-benzylamino-4-pyridyl)-2-methyl-thioimidazole]
IC50 ([1]; Homo sapiens, Table 2): 80 nM
IC50 ([2]; Homo sapiens, Table 2): 390 nM

Compound: CCCn1c(SCc2ccc(SC)cc2)nc(-c2ccc(F)cc2)c1-c1ccncc1 [Example 31, 4-(4-Fluorophenyl)-2-(4-methylthio)benzylthio-1-n-propyl-5-(4-pyridyl)-imidazole]
IC50 ([1]; Table 1): 4700 nM
TNF-α, value given in % ([2]; Table 1): 35%

Compound: CCCn1c(S)nc(-c2ccncc2)c1-c1ccc(F)cc1 [Example 59]
IL-1β, value given in % ([1]; Table 1): 16%
IC50 ([2]; Table 1): 83000 nM

Compound: CCCn1c(Sc2ccc(SC)cc2)nc(-c2ccc(F)cc2)c1-c1ccncc1 [Example 54, 4-(4-Fluorophenyl)-2-(4-methylsulfanyl)phenylsulfanyl-1-n-propyl-5-(4-pyridyl)imidazole]
IC50 ([1]; Table 1): 2500 nM
IC50 ([2]; Table 1): 68000 nM

Compound: COc1ccc(C(=O)Nc2cc(-c3c(-c4ccc(F)cc4)nc(SC)n3C)ccn2)cc1 [Example 67, 4-([lacuna]-Fluorophenyl)-1-methyl-5-[2-(4-methoxybenzamido)-4-pyridyl]-2-methylthioimidazole]
IC50 ([1]; Homo sapiens, Table 2): 440 nM
IC50 ([2]; Homo sapiens, Table 2): 640 nM

Compound: CC1(C)CC(n2cc(-c3ccc(F)cc3)nc2SCc2ccccc2)CC(C)(C)N1 [Example 46, 2-Benzylthio-4-(4-fluorophenyl)-1-(2,2,6,6-tetramethylpiperidin-4-yl)-imidazole]
IC50 ([1]; Homo sapiens, Table 1): 870 nM
IC50 ([2]; Homo sapiens, Table 1): 12000 nM

Compound: CCCn1c(Sc2ccc([S+](C)[O-])cc2)nc(-c2ccc(F)cc2)c1-c1ccncc1 (stereo not shown) [Example 55, 4-(4-Fluorophenyl)-2-[(4-methylsulfinyl)phenyl]thio-1-n-propyl-5-(4-pyridyl)imidazole]
IC50 ([1]; Table 1): 720 nM
IC50 ([2]; Table 1): 6200 nM

Compound: CS(=O)(=O)c1ccc(CSc2nc(-c3ccc(F)cc3)c(-c3ccncc3)n2Cc2ccccc2)cc1 [Example 41, 1-Benzyl-4-(4-fluorophenyl)-2-(4-methylsulfonyl)benzylthio-5-(4-pyridyl)-imidazole]
IC50 ([1]; Table 1): 360 nM
IC50 ([2]; Table 1): 1000 nM

Compound: CCn1c(SCc2ccc(S(C)(=O)=O)cc2)nc(-c2ccc(F)cc2)c1-c1ccncc1 [Example 27, 1-Ethyl-4-(4-fluorophenyl)-2-(4-methylsulfonyl)benzylthio-5-(4-pyridyl)-imidazole]
IC50 ([1]; Table 1): 950 nM
IC50 ([2]; Table 1): 4100 nM

Compound: Cc1c(-c2ccc(F)cc2)nc(S)n1-c1cccnc1 [Example 58, 4-(4-Fluorophenyl)-5-methyl-1-(3-pyridyl)imidazole-2-thiol]
IC50 ([1]; Homo sapiens, Table 1): 28000 nM
TNF-α, value given in % ([2]; Table 1): 32%

Compound: CCCn1c(SCc2ccc([S+](C)[O-])cc2)nc(-c2ccc(F)cc2)c1-c1ccncc1 (stereo not shown) [Example 32, 4-(4-Fluorophenyl)-2-(4-methylsulfinyl)benzylthio-1-n-propyl-5-(4-pyridyl)imidazole]
IC50 ([1]; Table 1): 1600 nM
IC50 ([2]; Table 1): 24000 nM

Compound: CSc1nc(-c2ccc(F)cc2)c(-c2ccncc2)n1C1CC1 [Example 22, 1-Cyclopropyl-4-(4-fluorophenyl)-2-methylthio-5-(4-pyridyl)imidazole]
IC50 ([1]; Homo sapiens, Table 1): 340 nM
IC50 ([2]; Homo sapiens, Table 1): 1100 nM

The next lines start with results.

IC50 ([1]; Table 1): 2200 nM
Compound: CC(C)n1c(-c2ccncc2)c(-c2ccc(F)cc2)[nH]c1=S [Example 4]
TNF-α, value given in % ([2]; Table 1): 46%

IC50 ([1]; Table 1): 7300 nM
Compound: OCCCn1c(-c2ccncc2)c(-c2ccc(F)cc2)[nH]c1=S [Example 17, 4-(4-Fluorophenyl)-1-(3-hydroxypronyl)-5-(4-pyridyl)-2-thioimidazole]
TNF-α, value given in % ([2]; Table 1): 49%

IC50 ([1]; Table 1): 5400 nM
IC50 ([2]; Table 1): 33000 nM
Compound: Fc1ccc(-c2[nH]c(=S)n(C3CCCCC3)c2-c2ccncc2)cc1 [Example 5, 1-Cyclohexyl-4-(4-fluorophenyl)-5-(4-pyridyl)-2-thioimidazole]

IC50 ([1]; Table 1): 1600 nM
IC50 ([2]; Table 1): 45000 nM
Compound: CC1(C)CC(n2c(-c3ccncc3)c(-c3ccc(F)cc3)[nH]c2=S)CC(C)(C)N1 [Example 12, 4-(4-Fluorophenyl)-5-(4-pyridyl)-1-(2,2,6,6-tetramethylpiperidin-4-yl)-2-thioimidazole]

IC50 ([1]; Table 1): 2300 nM
IC50 ([2]; Table 1): 37000 nM
Compound: Fc1ccc(-c2[nH]c(=S)n(-c3ccccc3)c2-c2ccncc2)cc1 [Example 7, 4-(4-Fluorophenyl)-1-phenyl-5-(4-pyridyl)-2-thioimidazole]

IC50 ([1]; Homo sapiens, Table 2): 120 nM
IC50 ([2]; Homo sapiens, Table 2): 490 nM
Compound: CCCn1c(SC)nc(-c2ccc(F)cc2)c1-c1ccnc(NC(C)=O)c1 [Example 62, 4-(4-Fluorophenyl)-1-n-propyl-5-(2-acetamido-4-pyridyl)-2-methyl-thioimidazole]

IC50 ([1]; Homo sapiens, Table 1): 1300 nM
IC50 ([2]; Homo sapiens, Table 1): 11000 nM
Compound: Fc1ccc(-c2nc(SCc3ccccc3)n(CCN3CCOCC3)c2-c2ccncc2)cc1 [Example 42, 2-Benzylthio-4-(4-fluorophenyl)-1-N-morpholinoethyl-5-(4-pyridyl)-imidazole]

IC50 ([1]; Homo sapiens, Table 2): 460 nM
IC50 ([2]; Homo sapiens, Table 2): 4500 nM
Compound: CSc1nc(-c2ccc(F)cc2)c(-c2ccnc(NC(C)=O)c2)n1C1CC(C)(C)NC(C)(C)C1 [Example 63, 4-(4-Fluorophenyl)-1-(2,2,6,6-tetramethylpiperidin-4-yl)-5-(2-acetamido-4-pyridyl)-2-methylthioimidazole]

IC50 ([1]; Homo sapiens, Table 1): 850 nM
IC50 ([2]; Homo sapiens, Table 1): 16000 nM
Compound: CSc1nc(-c2ccc(F)cc2)c(-c2ccncc2)n1C1CC(C)(C)NC(C)(C)C1 [Example 25, 4-(4-Fluorophenyl)-2-methylthio-5-(4-pyridyl)-1-(2,2,6,6-tetramethyl-piperidin-4-yl)imidazole]

IC50 ([1]; Homo sapiens, Table 2): 270 nM
IC50 ([2]; Homo sapiens, Table 2): 2300 nM
Compound: CSc1nc(-c2ccc(F)cc2)c(-c2ccnc(N)c2)n1C [Example 66, 4-(4-Fluorophenyl)-1-methyl-5-(2-amino-4-pyridyl)-2-methyl-thioimidazole]

IC50 ([1]; Homo sapiens, Table 1): 1700 nM
IC50 ([2]; Homo sapiens, Table 1): 22000 nM
Compound: Cn1c(S/C=C\c2ccccc2)nc(-c2ccc(F)cc2)c1-c1ccncc1 [Example 48, 1-cis-Phenylethenylthio-4-(4-fluorophenyl)-1-methyl-5-(4-pyridyl)-imidazole]

IC50 ([1]; Table 1): 8000 nM
Compound: Fc1ccc(-c2[nH]c(=S)n(-c3cccnc3)c2-c2ccncc2)cc1 [Example 10, 4-(4-Fluorophenyl)-1-(3-pyridyl)-5-(4-pyridyl)-2-thioimidazole]
TNF-α, value given in % ([2]; Table 1): 42%

IC50 ([1]; Homo sapiens, Table 1): 19000 nM
Compound: Cc1nc(S)n(-c2ccc(F)cc2)c1-c1ccncc1 [Example 57, 1-(4-Fluorophenyl)-4-methyl-5-(4-pyridyl)imidazole-2-thiol]
TNF-α, value given in % ([2]; Table 1): 34%

IC50 ([1]; Table 1): 18000 nM
IC50 ([2]; Table 1): 100000 nM
Compound: Fc1ccc(-c2[nH]c(=S)n(CCCN3CCOCC3)c2-c2ccncc2)cc1 [Example 14, 4-(4-Fluorophenyl)-1-(3-N-morpholinopropyl)-5-(4-pyridyl)-2-thioimidazole]

IC50 ([1]; Homo sapiens, Table 2): 150 nM
IC50 ([2]; Homo sapiens, Table 2): 410 nM
Compound: CCCn1c(SC)nc(-c2ccc(F)cc2)c1-c1ccnc(NCC)c1 [Example 74, 4-(4-Fluorophenyl)-1-n-propyl-5-(2-ethylamino-4-pyridyl)-2-methylthioimidazole]

IC50 ([1]; Table 1): 12000 nM
Compound: CN(C)CCn1c(-c2ccncc2)c(-c2ccc(F)cc2)[nH]c1=S [Example 11, 1-Dimethylaminoethyl-4-(4-fluorophenyl)-5-(4-pyridyl)-2-thioimidazole]
TNF-α, value given in % ([2]; Table 1): 19%

IC50 ([1]; Table 1): 1800 nM
IC50 ([2]; Table 1): 15000 nM
Compound: 1-Dimethylaminophenyl-4-(4-fluorophenyl)-5-(4-pyridyl)-2-thioimidazole [Example 9]

IC50 ([1]; Homo sapiens, Table 1): 1000 nM
IC50 ([2]; Homo sapiens, Table 1): 14000 nM
Compound: CCCn1c(Sc2ccccc2)nc(-c2ccc(F)cc2)c1-c1ccncc1 [Example 52, 4-(4-Fluorophenyl)-2-phenylthio-1-n-propyl-5-(4-pyridyl)imidazole]

IC50 ([1]; Homo sapiens, Table 1): 360 nM
IC50 ([2]; Homo sapiens, Table 1): 1300 nM
Compound: CCCn1c(SC)nc(-c2ccc(F)cc2)c1-c1ccncc1 [Example 21, 4-(4-Fluorophenyl)-2-methylthio-1-n-propyl-5-(4-pyridyl)imidazole]

IC50 ([1]; Table 1): 450 nM
IC50 ([2]; Table 1): 2500 nM
Compound: CSc1nc(-c2ccc(F)cc2)c(-c2ccncc2)n1C [Example 20]

IC50 ([1]; Homo sapiens, Table 1): 3300 nM
IC50 ([2]; Homo sapiens, Table 1): 29000 nM
Compound: CCCn1c(Sc2ccc(Cl)cc2)nc(-c2ccc(F)cc2)c1-c1ccncc1 [Example 53, 2-(4-Chlorophenyl)thio-4-(4-fluorophenyl)-1-n-propyl-5-(4-pyridyl)-imidazole]

IC50 ([1]; Homo sapiens, Table 2): 70 nM
IC50 ([2]; Homo sapiens, Table 2): 870 nM
Compound: CSc1nc(-c2ccc(F)cc2)c(-c2ccnc(NC(C)=O)c2)n1C [Example 61, 4-(4-Fluorophenyl)-1-methyl-5-(2-acetamido-4-pyridyl)-2-methyl-thioimidazole]
